# Where a SMILES comes first, the peptide text is derived from it.
# How the values were obtained:
# [1] = tested on: CREB; test: CREB activation (phosphorylation on serine 133) in wild-type cortical neurons, western blotting; type: cell-based, mouse; conditions: 20 minutes, 7 days in vitro
# Description: (§1) To assess the ability of peptides P1, P2 and P6, respectively, to activate transcription factor CREB, cortical neurons were isolated from p0 wild-type mice and seeded in a density of 500.000 per well. After 7 days in vitro the neurons were stimulated with the different peptide variants at 1 uM in neurobasal A media and incubated at 37° C. and 5% C02 for 20 minutes. Hereafter, the neurons were lysed in lysis buffer containing DTT and cOmplete cocktail protease inhibitor and subsequently sonicated to disrupt the nuclear membrane. The phosphorylation of CREB on serine 133 was validated by western blotting normalized to beta-actin. As control, cells were stimulated with a scrambled peptide (Scr). Student's t-test was used for statistical analysis.
# as §1, with “The” for “To assess the”, “peptide P1” for “peptides P1, P2”, “a linear peptide analog of P1 with acetylated N- and amidated C-terminals (referred to as LP1)” for “P6, respectively,”, “CREB was assessed. Cortical” for “CREB, cortical”, “20 nM” for “1 uM”, “CO2” for “C02”
# [2] = tested on: cortical neurons; test: Survival of wild-type cortical neurons, MTT assay; type: cell-based, mouse; conditions: for relative survival compared to control: 1 uM on DIV7, DIV9 and DIV11, MTT at DIV12
# Description: Cortical neurons were isolated from p0 wild-type mice and seeded in a density of 50.000 in a 96-well plate pre-coated with poly-L and laminin and incubated at 37° C. in a 5% C02 atmosphere. At 7 days in vitro (DIV7) the neurons were treated by changing half the media with neurobasal A with B27 containing the peptides (P2, P4 or P6) to give a finale concentration of 1 uM and further incubated. The cortical neurons were treated in a likewise manner on DIV9 and DIV11. At DIV12 half the media was removed and 3-(4,5-dimethylthiazole-2-yl)-2,5-diphenyltetrazolium bromide (MTT) was added to the media to give a finale concentration of 0.5 mg/mL. MTT is reduced by mitochondrial enzymes in active cells to an insoluble product called formazan, which can be detected by colorimetry. Thus, the colour generated reflects activity and viable cells in the culture. The neurons were incubated for 4 hours with MTT and thereafter lysed in a 50% EtOH and 50% DMSO solution. To assure proper mixing of formazan, the plate was left to shake for 30 minutes before being measured at 570 nm and 650 nm. Student's t-test was used for statistical analysis.
# Further, a drug-dose response on survival for peptide P1 was assessed in a similar manner.
# [3] = tested on: GRN(+/-) cortical neurons; test: Survival of GRN-deficient cortical neurons, MTT assay; type: cell-based, mouse; conditions: 1 uM on DIV7, 9, 11, 13 and 15; MTT at DIV16
# [4] = tested on: hippocampal neurons; test: Neuronal branching in wild-type hippocampal neurons; type: cell-based, mouse; conditions: DIV1 to DIV4
# Description: Hippocampal neurons were isolated from p0 wild-type mice and seeded in a density of 10.000 per well in 24-well trays containing poly-D and laminin coated coverslips. At DIV1 the neurons were treated with 0.1 uM or 1 uM P6. BDNF (1 nM) was used as a positive control. At DIV4 the neurons were fixed and immunostained for MAP2, a marker of dendrites. Pictures of MAP2 were taken of neurites with 20 neurons pr. coverslip. The neurites may not be in contact with other neurites from other neurons. The pictures were analysed in Imaris Software. The number branches were counted manually.
# [5] = tested on: SV2A; test: SV2A levels in wild-type neurons, western blotting; type: cell-based, mouse; conditions: 0.1 uM or 1 uM from DIV8 for 3 days
# Description: Hippocampal neurons were isolated from p0 wild-type mice and seeded in a density of 250,000 per well in 12-well trays precoated with poly-L and laminin. At DIV8 the neurons were treated with 0.1 uM or 1 uM P6 for 3 days. The neurons were lysed in RIPA buffer containing cOmplete and phosSTOP and SV2A levels were validated by western blotting, normalized to beta-actin.
# [6] = tested on: AMPK (T172) and CREB (S133); test: P1 activation of AMPK and CREB with or without CaMKK2-inhibitor STO-609 in cortical neurons; type: cell-based, mouse; conditions: 5 uM STO-609
# Description: Mouse cortical neurons were isolated from p0 wild-type mice and seeded in a density of 250,000 per well in a 12-well tray. After 7 days in vitro the neurons were either pre-treated with STO-609 (5 uM) for 1 hour or with DMSO (control). After 1 hour, the neurons were stimulated with P1 or a scrambled peptide (Scr), with or without STO-609, in neurobasal A media and incubated at 37° C. and 5% CO2 for 20 minutes. Hereafter, the neurons were lysed in lysis buffer containing DTT and cOmplete cocktail protease inhibitor. Phosphorylation of AMPK (T172) and CREB (S133) was validated by western blotting and normalized to beta-actin.
# [7] = tested on: spared nerve injury (SNI) model; test: Spared nerve injury mouse model, acute, von Frey test; type: in vivo; conditions: single SC dose 17 days post-SNI operation
# Description: (§2) To assess the effect of peptide P3 on neuropathic pain, the spared nerve injury (SNI) model was used. The threshold for mechanical pain response is determined by testing with von Frey filaments of increasing bending force, which are repetitively pressed against the lateral area of the paw. Two baseline measurements were made before SNI operation. In brief, the common peroneal and tibial branches of the sciatic nerve were ligated and cut distally to the ligation, just distal to the branching of the sural nerve, which was left untouched. The mechanical allodynia was subsequently assessed with von Frey testing 17 days post-surgery. […] Student's t-test was used for statistical analysis.
# [8] = tested on: spared nerve injury (SNI) model; test: Spared nerve injury mouse model, daily dosing, von Frey test; type: in vivo; conditions: single SC dose daily for 8 days from 1 day post-SNI operation
# Description: as §2
# Mice, surgery and von Frey testing was performed as in Example 28.
# Student's t-test was used for statistical analysis.
# [9] = tested on: CREB; test: CREB activation in striatum and hippocampus of wild-type mice after IV injection; type: in vivo, mouse; conditions: 0.26 mg/kg IV, 1 hour after injection
# Description: To assess this, 8 weeks old wild-type mice were injected intravenously with either 0.26 mg/kg of peptide P1 or LP1 dissolved in saline. 1 hour after the injection, the mice were sacrificed by cervical dislocation and striatal tissue was isolated by dissection and immediately lysed using a TissueLyser in lysis buffer containing cOmplete and DTT. The samples were subsequently homogenized by sonication. The phosphorylation of CREB on serine 133 was subsequently validated by western blotting. The levels of phosphorylated CREB were normalized to the corresponding beta-actin levels. Student's t-test was used for statistical analysis.
# [10] = tested on: CREB and AMPK; test: CREB and AMPK activation in brain of wild-type mice after subcutaneous injection; type: in vivo, mouse; conditions: 3.6 mg/kg SC, separate study
# Description: To assess the subcutaneous administration route of peptide P1, 8 weeks old wild-type mice were subcutaneously injected with different doses ranging between 0.13 to 26 mg/kg of peptide P1 dissolved in 4.38 mM L-His, 140 mM NaCl, 0.2% Tween-20 and 1500 IU hyaluronidase (pH 6.15). Likewise, was an earlier lead peptide constituting a linear version of P1 attached to a cell-penetrating moiety (P9, SEQ ID NO: 9), tested for its ability to activate CREB in both striatum and hippocampus (in a separate study) following subcutaneous injection with 3.6 mg/kg. 2 hours after injection the mice were sacrificed by cervical dislocation and striatal tissue was isolated by dissection and snap frozen in liquid nitrogen and stored at −80° C. until further use. To assess the activation of CREB and AMPK, the tissue was lysed using a TissueLyser in lysis buffer containing cOmplete and DTT. The samples were subsequently homogenized by sonication. The phosphorylation of CREB on serine 133 and threonine 172 on AMPK was subsequently validated by western blotting and the levels of were normalized to beta-actin. Student's t-test was used for statistical analysis.
# [11] = biological target: mouse brain homogenate; test: brain homogenate binding: 2 uM P1, ultracentrifugation, LCMS
# [12] = biological target: mouse plasma (plasma proteins); test: plasma binding: 2 uM P1 in plasma, ultracentrifugation, LCMS
# [13] = biological target: human plasma (plasma proteins); test: plasma binding: 2 uM P1 in plasma, ultracentrifugation, LCMS; % Bound=100*(1-F/T4.5)
molecule,measurement,setting,value
[MIGSVEQEENA] [Peptide P6],activation of CREB (phosphorylation on serine 133) compared to scrambled peptide,[1]; 1 uM,markedly activated CREB
same,relative survival compared to control,[2],increased the relative survival
same,relative survival compared to control,[3],increased the relative survival
same,neurite branching,[4]; 0.1 uM,increased neurite branching similar to BDNF
same,neurite branching,[4]; 1 uM,increased neurite branching similar to BDNF
same,SV2A levels,[5],increased SV2A levels
"O=C(O)c1ccc2c3c1cccc3c(=O)n1c3ccccc3nc21 [STO-609, reference compound]",AMPK phosphorylation following STO-609-treatment,[6],inhibition of AMPK
[MTAPVAHAEDV] [Peptide P3],"neuropathic pain, von Frey test",[7],attenuated the pain in an acute manner
same,"neuropathic pain, von Frey test",[8],continuously reduced the neuropathic pain
[MIEPVEHEESR] [Peptide P4],relative survival compared to control,[2],increased the relative survival
same,relative survival compared to control,[3],increased the relative survival
[MTDPVDHDEDV] [Peptide P2],activation of CREB (phosphorylation on serine 133) compared to scrambled peptide,[1]; 1 uM,markedly activated CREB
same,relative survival compared to control,[2],increased the relative survival
same,relative survival compared to control,[3],increased the relative survival
"CSCC[C@H](NC(C)=O)C(=O)N[C@H](C(=O)N[C@@H](CCC(=O)O)C(=O)N1CCC[C@H]1C(=O)N[C@H](C(=O)N[C@@H](CCC(=O)O)C(=O)N[C@@H](Cc1c[nH]cn1)C(=O)N[C@@H](CCC(=O)O)C(=O)N[C@@H](CCC(=O)O)C(=O)N[C@@H](CC(=O)O)C(=O)N[C@H](C(N)=O)C(C)C)C(C)C)[C@@H](C)O [LP1, Ac-MTEPVEHEEDV—NH2, reference compound] (Ac-MTEPVEHEEDV-NH2)",activation of CREB (phosphorylation on serine 133) compared to scrambled peptide,[1]; 20 nM,activated CREB to a lesser extent
same,pCREB (S133) in hippocampus,[9],increase phosphorylated CREB
same,pCREB (S133) in striatum,[9],increase phosphorylated CREB
"YARAAARNARAEKEQEMTDPVDHDEDVQGAVQ (Linear peptide) [Peptide P9, reference compound]",pCREB in hippocampus,[10],not able to notably activate CREB
same,pCREB in striatum,[10],not able to notably activate CREB
"BDNF (protein, UniProt P23560 19-247, looked up, neurotrophic factor used as a positive control) Neurotrophic factor BDNF …: APMKEANIRGQGGLAYPGVRTHGTLESVNGPKAGSRGLTSLADTFEHVIEELLDEDQKVRPNEENNKDADLYTSRVMLSSQVPLEPPLLFLLEEYKNYLDAANMSMRVRRHSDPARRGELSVCDSISEWVTAADKKTAVDMSGGTVTVLEKVPVSKGQLKQYFYETKCNPMGYTKEGCRGIDKRHWNSQCRTTQSYVRALTMDSKKRIGWRFIRIDTSCVCTLTIKRGR",survival in drug-dose response study,[2]; BDNF as positive control,increased survival to a lesser extent than peptide P1
MTEPVEHEEDV (Cyclic (backbone): head-to-tail cyclized via the M amino acid residue in position 1 and the V amino acid residue in position 11) [Cyclic peptide P1],brain homogenate binding,[11],< 20%
same,unbound in plasma,[12],> 75%
same,plasma binding,[13],20%

# From patent US20230312652A1, “NOVEL PEPTIDES AND USES THEREOF” (Aarhus Universitet, priority 2020, published 2023)
